The values that follow come from patent US9845322B2 (Hoffmann-La Roche Inc., priority 2016, dated 2017).

One assay deals with HBsAg secretion in HepG2.2.15 cells. The assay is described as follows: HBsAg assay (chemiluminescence immunoassay of secreted HBsAg in culture supernatant). The format is cell-based, HBV. The following applies: HepG2.2.15 cells; concentration at which HBsAg secretion was reduced by 50% compared to the no drug control; read-out: IC50 (HBsAg assay). Summed up:
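IC50 taken from dose-response curves as the concentration halving secreted HBsAg relative to DMSO control. Measured by chemiluminescence immunoassay of culture supernatant from constitutively HBV-expressing HepG2.2.15 cells, seeded at 1.5×10^4/well in duplicate and exposed to three-fold serial compound dilutions at 1% final DMSO.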
For orientation: IC50 means the concentration needed to halve the response being measured. For the compound `CC1c2cnc(-c3ncccn3)nc2CCN1c1cc(O)c(F)c(F)c1` (single isomer, unassigned; (+)) [Example 46, (+)-2,3-difluoro-5-(5-methyl-2-pyrimidin-2-yl-7,8-dihydro-5H-pyrido[4,3-d]pyrimidin-6-yl)phenol], the IC50 was 8170 nM.

`CC1c2cnc(-c3ncccn3)nc2CCN1c1cc(F)cc(N(C)C)n1` (single isomer, unassigned; (+)) [Example 204, (+)-4-fluoro-N,N-dimethyl-6-[5-methyl-2-pyrimidin-2-yl-7,8-dihydro-5H-pyrido[4,3-d]pyrimidin-6-yl]pyridin-2-amine]: the concentration for half-maximal inhibition (IC50) worked out at 113 nM.

In the case of `CC1c2cnc(-c3ncccn3)nc2CCN1c1cc(F)c(F)c(OCC(N)=O)c1` (single isomer, unassigned; (-)) [Example 68, (−)-2-[2,3-difluoro-5-[5-methyl-2-pyrimidin-2-yl-7,8-dihydro-5H-pyrido[4,3-d]pyrimidin-6-yl]phenoxy]acetamide], the IC50 came to 74 nM.

Regarding `COc1cc(F)nc(N2CCc3nc(-c4ncccn4)ncc3C2C)c1` (single isomer, unassigned; (-)) [Example 138, (−)-6-(6-fluoro-4-methoxy-2-pyridyl)-5-methyl-2-pyrimidin-2-yl-7,8-dihydro-5H-pyrido[4,3-d]pyrimidine], the IC50 came to 11 nM.

The assay is the same for the next values; noted with them: Hepatitis B virus, HepG2.2.15, HepG2.2.15 cells; concentration at which HBsAg secretion was reduced by 50% compared to the no drug control; read-out: IC50 (HBsAg assay).
Take `CC1c2cnc(-c3ncccn3)nc2CCN1c1cc(OCC2CS(=O)(=O)C2)cc(F)n1` (centres unmarked) [Example 195, 3-[[2-fluoro-6-(5-methyl-2-pyrimidin-2-yl-7,8-dihydro-5H-pyrido[4,3-d]pyrimidin-6-yl)-4-pyridyl]oxymethyl]thietane 1,1-dioxide]: the IC50 is 55 nM.

As to `CC1c2cnc(-c3ncccn3)nc2CCN1c1cc(F)c(F)c(OCCC2CCCO2)c1` (centres unmarked) [Example 105, 6-[3,4-difluoro-5-(2-tetrahydrofuran-2-ylethoxy)phenyl]-5-methyl-2-pyrimidin-2-yl-7,8-dihydro-5H-pyrido[4,3-d]pyrimidine], the IC50 is 23 nM.

On to `CC1c2cnc(-c3ncccn3)nc2CCN1c1cc(OCCCCCCCC(=O)O)cc(F)n1` (centres unmarked) [Example 168, 8-[[2-fluoro-6-(5-methyl-2-pyrimidin-2-yl-7,8-dihydro-5H-pyrido[4,3-d]pyrimidin-6-yl)-4-pyridyl]oxy]octanoic acid], for which the IC50 was determined as 21 nM.

Consider `CC1c2cnc(-c3ncccn3)nc2CCN1c1cc(F)c(F)c(OCCCCCCCCNC(=O)OC(C)(C)C)c1` (centres unmarked) [Example 54, tert-butyl N-[8-[2,3-difluoro-5-(5-methyl-2-pyrimidin-2-yl-7,8-dihydro-5H-pyrido[4,3-d]pyrimidin-6-yl)phenoxy]octyl]carbamate], for which the IC50 is 146 nM.

On to `CC1c2cnc(-c3ncccn3)nc2CCN1c1cc(OCC2CC2)cc(F)n1` (centres unmarked) [Example 152, 6-[4-(cyclopropylmethoxy)-6-fluoro-2-pyridyl]-5-methyl-2-pyrimidin-2-yl-7,8-dihydro-5H-pyrido[4,3-d]pyrimidine], for which the half-maximal inhibitory concentration (IC50) turned out to be 11 nM.

For `CC1c2cnc(-c3ccccn3)nc2CCN1c1cc(F)c(F)c(OCCCN)c1` (centres unmarked) [Example 34, 3-[2,3-difluoro-5-[5-methyl-2-(2-pyridyl)-7,8-dihydro-5H-pyrido[4,3-d]pyrimidin-6-yl]phenoxy]propan-1-amine], the IC50 stood at 1710 nM.

Consider `CC1c2cnc(-c3ccccn3)nc2CCN1c1cc(OCC2CCOC2)cc(F)n1` (centres unmarked) [Example 188, 6-[6-fluoro-4-(tetrahydrofuran-3-ylmethoxy)-2-pyridyl]-5-methyl-2-(2-pyridyl)-7,8-dihydro-5H-pyrido[4,3-d]pyrimidine], for which the IC50 is 29 nM.

In the case of `CC1c2cnc(-c3ccccn3)nc2CCN1c1cc(F)cc(N(C)C)n1` (centres unmarked) [Example 217, 4-fluoro-N,N-dimethyl-6-[5-methyl-2-(2-pyridyl)-7,8-dihydro-5H-pyrido[4,3-d]pyrimidin-6-yl]pyridin-2-amine], the half-maximal inhibitory concentration (IC50) was found to be 28 nM.

For the compound `CC1c2cnc(-c3ncccn3)nc2CCN1c1cc(N2CCNCC2)cc(F)n1` (centres unmarked) [Example 208, 6-(6-fluoro-4-piperazin-1-yl-2-pyridyl)-5-methyl-2-pyrimidin-2-yl-7,8-dihydro-5H-pyrido[4,3-d]pyrimidine], the IC50 came out at 186 nM.

In the case of `CC1c2cnc(-c3ncccn3)nc2CCN1c1cc(F)c(F)c(OCC2CN(C(=O)OC(C)(C)C)C2)c1` (centres unmarked) [Example 132, tert-butyl 3-[[2,3-difluoro-5-(5-methyl-2-pyrimidin-2-yl-7,8-dihydro-5H-pyrido[4,3-d]pyrimidin-6-yl)phenoxy]methyl]azetidine-1-carboxylate], the 50% inhibitory concentration (IC50) worked out at 30 nM.

For `CC1c2cnc(-c3ncccn3)nc2CCN1c1cc(F)c(F)c(OCCC2COC2)c1` (centres unmarked) [Example 79, 6-[3,4-difluoro-5-[2-(oxetan-3-yl)ethoxy]phenyl]-5-methyl-2-pyrimidin-2-yl-7,8-dihydro-5H-pyrido[4,3-d]pyrimidine], the IC50 stood at 15 nM.

Take `CC1c2cnc(-c3ncccn3)nc2CCN1c1cc(OCCCOCC(=O)O)cc(F)n1` (centres unmarked) [Example 162, 2-[3-[[2-fluoro-6-(5-methyl-2-pyrimidin-2-yl-7,8-dihydro-5H-pyrido[4,3-d]pyrimidin-6-yl)-4-pyridyl]oxy]propoxy]acetic acid]: the IC50 was determined as 1780 nM.

Turning to `CCC1c2cnc(-c3ccccn3)nc2CCN1c1ccc(S(C)(=O)=O)cc1` (centres unmarked) [Example 4, 5-ethyl-6-(4-methylsulfonylphenyl)-2-(2-pyridyl)-7,8-dihydro-5H-pyrido[4,3-d]pyrimidine], the half-inhibitory concentration (IC50) turned out to be 1920 nM.

On to `CC1c2cnc(-c3ccccn3)nc2CCN1c1cc(F)c(F)c(OCCCNS(C)(=O)=O)c1` (centres unmarked) [Example 35, N-[3-[2,3-difluoro-5-[5-methyl-2-(2-pyridyl)-7,8-dihydro-5H-pyrido[4,3-d]pyrimidin-6-yl]phenoxy]propyl]methanesulfonamide], for which the IC50 was 46 nM.

For `COc1cc(N2CCc3nc(-c4ccccn4)ncc3C2C[N+](=O)[O-])cc(F)c1F` (centres unmarked) [Example 39, 6-(3,4-difluoro-5-methoxy-phenyl)-5-(nitromethyl)-2-(2-pyridyl)-7,8-dihydro-5H-pyrido[4,3-d]pyrimidine], the IC50 is 1340 nM.

As for `CC1c2cnc(-c3ncccn3)nc2CCN1c1cc(F)c(F)c(OCCCN2CCN(C(=O)OC(C)(C)C)CC2=O)c1` (centres unmarked) [Example 98, tert-butyl 4-[3-[2,3-difluoro-5-(5-methyl-2-pyrimidin-2-yl-7,8-dihydro-5H-pyrido[4,3-d]pyrimidin-6-yl)phenoxy]propyl]-3-oxo-piperazine-1-carboxylate], the 50% inhibitory concentration (IC50) came to 372 nM.

In the case of `COc1c(Cl)c(F)cc(N2CCc3nc(-c4ncccn4)ncc3C2C)c1Cl` (single isomer, unassigned; (+)) [Example 124, (+)-6-(2,4-dichloro-5-fluoro-3-methoxy-phenyl)-5-methyl-2-pyrimidin-2-yl-7,8-dihydro-5H-pyrido[4,3-d]pyrimidine], the IC50 stood at 1250 nM.

Regarding `CC1c2cnc(-c3ncccn3)nc2CCN1c1cc(NS(C)(=O)=O)cc(F)n1` (centres unmarked) [Example 211, N-[2-fluoro-6-(5-methyl-2-pyrimidin-2-yl-7,8-dihydro-5H-pyrido[4,3-d]pyrimidin-6-yl)-4-pyridyl]methanesulfonamide], the IC50 was determined as 270 nM.

`CC1c2cnc(-c3ccccn3)nc2CCN1c1cc(F)c(F)c(OCCCCCO)c1` (centres unmarked) [Example 25, 5-[2,3-difluoro-5-[5-methyl-2-(2-pyridyl)-7,8-dihydro-5H-pyrido[4,3-d]pyrimidin-6-yl]phenoxy]pentan-1-ol]: the concentration for half-maximal inhibition (IC50) turned out to be 33 nM.
